Where a name gives a salt, the structure may show the parent alone. Read-outs that look alike come from different tables or passages of the source.
Assays:
blood glucose = experiment: Anti-hyperglycaemic activity (blood glucose after subcutaneous glucose in fasted mice); assay type: in vivo, Female CFLP mice; settings: Mus musculus, read-out: Reduction in area under blood glucose curve
Experimental: Female CFLP mice, each weighing approximately 25 g were fasted for 24 hours prior to the study. The compounds under study were administered orally as an aqueous solution to each of 6 mice. 6 mice were given water as a control. 30 minutes later a blood sample (20 μl ) was obtained from the tail for the analysis of blood glucose. Immediately after taking this blood sample, glucose (1 g/kg body weight) was administered subcutaneously to each mouse. Blood samples were then obtained from each mouse at 30 minute intervals for 120 minutes.
Compounds that produced a significant (P<0.05) reduction of blood glucose, compared with control mice given water, at any time interval, were considered active. The area under the blood glucose curve over the 2 hour period after the adminstration of the glucose was calculated for each compound and compared with the value for control animals.

rat ear inflammation = experiment: Topical anti-inflammatory activity (croton oil rat ear inflammation); assay type: in vivo; settings: 1.0 mg/rat ear; 6 hours; activity = significant (5% level) reduction in ear weight vs non-drug treated control
Experimental: The method used is based on that described by G. Tonelli et al (Endocrinology, 77, 625-634, 1965). An inflammation is induced in the rat ear by the application of 50 μl of a 1% solution of croton oil in tetrahydrofuran, test compounds being dissolved in the irritant vehicle. After 6 hours the inflammation is assessed by killing the animals and weighing the ears. Topical anti-inflammatory activity of a compound is generally considered to be shown when a significant (5% level) reduction in ear weight is seem compared to non-drug treated control.

Rat hearts = experiment: Cardiac activity, rat hearts perfused by the Langendorff procedure
Experimental: Rat hearts were perfused by the Langendorff procedure as follows:
Hearts were dissected free within 30 seconds of death and reverse perfused via the aorta and coronary vessels with Krebs-Ringer bicarbonate solution (pH 7.4, 37° C.) gassed with 95% oxygen:5% carbon dioxide at a flow rate between 8-12 cm^3 /minute. Responses were observed after injection of drug dissolved in isotonic saline into the perfusion media.
Results are expressed as a percentage of the maximum response due to salbutamol.

platelet aggregation = experiment: Platelet aggregation inhibition activity (collagen-induced fall in platelet count, oral dosing); assay type: in vivo, Male CFLP mice; settings: collagen 400 μg/kg i.v. two hours later
Experimental: Male CFLP mice (ca 20 g, n=8) were dosed orally with compound or vehicle (controls) after an overnight fast. Two hours later each mouse received an intravenous dose of collagen (400 μg/kg, pH 6-6.6). Exactly 30 seconds after injection of collagen, each mouse was placed in a chamber of CO2 until respiration ceased. […] Each blood platelet count was expressed as a percent of that obtained in a tail blood sample taken immediately before injection of collagen.

[1] = dose 1 μ moles/kg po, 2 hour period after glucose 1 g/kg s.c.
[2] = read-out: Heart Rate (percentage of the maximum response due to salbutamol)
[3] = read-out: Heart Tension (percentage of the maximum response due to salbutamol)
[4] = 10 μg added to perfusate (salbutamol dose not given), read-out: Heart Rate (percentage of the maximum response due to salbutamol)
[5] = 10 μg added to perfusate (salbutamol dose not given), read-out: Heart Tension (percentage of the maximum response due to salbutamol)

## COc1ccc(CCC(C)(C)NCC(O)c2cccc(Cl)c2)cc1 (stereo not shown) [Example 16, N-[3-(4-Methoxyphenyl)-1,1-dimethylpropyl]-2-hydroxy-2-(3-chlorophenyl)ethanamine]
Blood glucose; dose 50 μ moles/kg po, 2 hour period after glucose 1 g/kg s.c.
  inhibition in vivo at 50 µmol/kg: 21%

## COc1ccc(C[C@H](C)NC[C@H](O)c2cccc(Cl)c2)cc1OC (relative stereo) [Example 20, N-[2-(3,4-Dimethoxyphenyl)-1-methylethyl]-2-hydroxy-2-(3-chlorophenyl)ethanamine-(RS,SR) diastereoisomer]
Blood glucose; po, 2 h
  inhibition in vivo at 2.5 µmol/kg: 34%

## CC(Cc1ccc(OCCc2ccccc2)cc1)NCC(O)c1cccc(Cl)c1 (stereo not shown) [Example 22, N-[2-(4-{2-phenylethoxy}phenyl)-1-methylethyl]-2-hydroxy-2-(3-chlorophenyl)ethanamine]
Blood glucose; dose 2.5 μ moles/kg po, 2 hour period after glucose 1 g/kg s.c.
  inhibition in vivo at 2.5 µmol/kg: 13%

## CCCCCOc1ccc(CC(C)NCC(O)c2cccc(Cl)c2)cc1 (stereo not shown) [Example 12, N-[2-(4-^n Pentyloxyphenyl)-1-methylethyl]-2-hydroxy-2-(3-chlorophenyl)ethanamine]
Blood glucose; po, 2 h
  inhibition in vivo at 0.5 µmol/kg: 36%

## COc1ccc(C[C@H](C)NC[C@H](O)c2cccc(Cl)c2)cc1F (relative stereo) [Example 15, N-[2-(3-Fluoro-4-methoxyphenyl)-1-methylethyl]-2-hydroxy-2-(3-chlorophenyl)ethanamine-(RS,SR) diastereoisomer]
Blood glucose; po, 2 h
  inhibition in vivo at 1 µmol/kg: 19%

## COc1ccc(CC(C)NCC(O)c2cccc(Cl)c2)cc1 (stereo not shown) [Example 5, N-[2-(4-Methoxyphenyl)-1-methylethyl]-2-hydroxy-2-(3-chlorophenyl)ethanamine]
Rat ear inflammation
  Topical anti-inflammatory ACTIVITY: Active
Blood glucose; po, 2 h
  inhibition in vivo at 1 µmol/kg: 49%

## COc1cccc(CC(C)NCC(O)c2cccc(Cl)c2)c1 (stereo not shown) [Example 23, N-[2-(3-Methoxyphenyl)-1-methylethyl]-2-hydroxy-2-(3-chlorophenyl)ethanamine hydrochloride]
Blood glucose; po, 2 h
  inhibition in vivo at 2.5 µmol/kg: 22%

## COc1ccc(C[C@@H](C)NC[C@H](O)c2cccc(Cl)c2)cc1F (relative stereo) [Example 4, N-[2-(3-Fluoro-4-methoxyphenyl)-1-methylethyl]-2-hydroxy-2-(3-chlorophenyl)ethanamine hydrobromide-(RR,SS) diastereoisomer]
Blood glucose; po, 2 h
  inhibition in vivo at 1 µmol/kg: 42%

## CCCCCCCCCCOc1ccc(CC(C)NCC(O)c2cccc(Cl)c2)cc1 (stereo not shown) [Example 13, N-[2-(4-^n Decyloxyphenyl)-1-methylethyl]-2-hydroxy-2-(3-chlorophenyl)ethanamine]
Blood glucose; [1]
  inhibition in vivo at 1 µmol/kg: 22%

## COc1ccc(CC(C)NCC(O)c2cccc(Cl)c2)cc1F (stereo not shown) [Example 3, N-[2-(3-Fluoro-4-methoxyphenyl)-1-methylethyl]-2-hydroxy-2-(3-chlorophenyl)ethanamine]
Rat hearts; [2]
  Emax: 0%
Rat hearts; [3]
  Emax: 36%
Blood glucose; po, 2 h
  inhibition in vivo at 1 µmol/kg: 46%

## COc1ccc(CC(C)NCC(O)c2cccc(Cl)c2F)cc1 (stereo not shown) [Example 9, N-[2-(4-Methoxyphenyl)-1-methylethyl]-2-hydroxy-2-(3-chloro-2-fluorophenyl)ethanamine]
Blood glucose; po, 2 h
  inhibition in vivo at 1 µmol/kg: 40%

## COc1ccc(C[C@@H](C)NCC(O)c2cccc(Cl)c2)cc1F (stereo partly drawn) [Example 17, N-[2-(3-Fluoro-4-methoxyphenyl)-1-(R)-1-methylethyl]-2-(R,S)-2-hydroxy-2-(3-chlorophenyl)ethanamine hydrobromide]
Blood glucose; po, 2 h
  inhibition in vivo at 2.5 µmol/kg: 38%

## COc1ccc(CC(C)NCC(O)c2cccc(Cl)c2)cc1OC (stereo not shown) [Example 19, N-[2-(3,4-Dimethoxyphenyl)-1-methylethyl]-2-hydroxy-2-(3-chlorophenyl)ethanamine]
Blood glucose; po, 2 h
  inhibition in vivo at 2.5 µmol/kg: 21%

## CC(Cc1ccc(O)cc1)NCC(O)c1cccc(Cl)c1 (stereo not shown) [Example 2, N-[2-(4-Hydroxyphenyl)-1-methylethyl]-2-hydroxy-2-(3-chlorophenyl)ethanamine]
Rat hearts; [2]
  Emax: 14%
Rat hearts; [3]
  Emax: 26%
Blood glucose; po, 2 h
  inhibition in vivo at 1 µmol/kg: 47%
Platelet aggregation; dose 5 μmol/kg po
  % INHIBITION OF RESPONSE TO COLLAGEN: 40%

## CC(CCc1ccc(O)cc1)NCC(O)c1cccc(Cl)c1 (stereo not shown) [Example 10, N-[3-(4-Hydroxyphenyl)-1-methylpropyl]-2-hydroxy-2-(3-chlorophenyl)ethanamine]
Blood glucose; [1]
  inhibition in vivo at 1 µmol/kg: 47%
Platelet aggregation; dose 5 μmol/kg po
  % INHIBITION OF RESPONSE TO COLLAGEN: 40%

## COc1ccc(CC(C)NCC(O)c2cccc(F)c2)cc1 (stereo not shown) [Example 7, N-[2-(4-Methoxyphenyl)-1-methylethyl]-2-hydroxy-2-(3-fluorophenyl)ethanamine]
Blood glucose; po, 2 h
  inhibition in vivo at 5 µmol/kg: 32%

## CC(Cc1ccc(OCc2ccccc2)cc1)NCC(O)c1cccc(Cl)c1 (stereo not shown) [Example 1, N-[2-(4-Benzyloxyphenyl)-1-methylethyl]-2-hydroxy-2-(3-chlorophenyl)ethanamine]
Rat hearts; [4]
  Emax: 0%
Rat hearts; [5]
  Emax: 7%
Blood glucose; [1]
  inhibition in vivo at 1 µmol/kg: 36%

## CC(=O)Oc1ccccc1C(=O)O [Aspirin, reference compound]
Platelet aggregation; dose 600 μmol/kg po
  % INHIBITION OF RESPONSE TO COLLAGEN: 33%

## COc1ccc(C[C@@H](C)NC[C@H](O)c2cccc(Cl)c2)cc1 (relative stereo) [Example 6, N-[2-(4-Methoxyphenyl)-1-methylethyl]-2-hydroxy-2-(3-chlorophenyl)ethanamine hydrobromide-(RR,SS) diastereoisomer]
Blood glucose; po, 2 h
  inhibition in vivo at 0.5 µmol/kg: 30%
  inhibition in vivo at 1 µmol/kg: 40%

## CC(C)(C)NCC(O)c1ccc(O)c(CO)c1 (stereo not shown) [Salbutamol, salbutamol, reference compound]
Rat hearts; [4]
  Emax: 100%
Rat hearts; [5]
  Emax: 100%

## COc1ccc(CC(C)NCC(O)c2cccc(Br)c2)cc1 (stereo not shown) [Example 8, N-[2-(4-Methoxyphenyl)-1-methylethyl]-2-hydroxy-2-(3-bromophenyl)ethanamine]
Blood glucose; po, 2 h
  inhibition in vivo at 1 µmol/kg: 30%

## CC(Cc1ccc(OC(C)C)cc1)NCC(O)c1cccc(Cl)c1 (stereo not shown) [Example 11, N-[2-(4-Isopropoxyphenyl)-1-methylethyl]-2-hydroxy-2-(3-chlorophenyl)ethanamine]
Blood glucose; po, 2 h
  inhibition in vivo at 0.2 µmol/kg: 12.5%

## CC(Cc1ccc(OC2CCCCC2)cc1)NCC(O)c1cccc(Cl)c1 (stereo not shown) [Example 21, N-[2-(4-Cyclohexyloxyphenyl)-1-methylethyl]-2-hydroxy-2-[3-chlorophenyl)ethanamine hydrochloride]
Blood glucose; po, 2 h
  inhibition in vivo at 2.5 µmol/kg: 53%

## COc1ccccc1CC(C)NCC(O)c1cccc(Cl)c1 (stereo not shown) [Example 24, N-[2-(2-Methoxyphenyl)-1-methylethyl]-2-hydroxy-2-(3-chlorophenyl)ethanamine]
Blood glucose; po, 2 h
  inhibition in vivo at 5 µmol/kg: 27%

## COc1ccc(CCNCC(O)c2cccc(Cl)c2)cc1 (stereo not shown) [Example 14, N-[2-(4-Methoxyphenyl)ethyl]-2-hydroxy-2-(3-chlorophenyl)ethanamine]
Blood glucose; [1]
  inhibition in vivo at 1 µmol/kg: 39%

## COc1ccc(CC(C)NCC(O)c2cccc(Cl)c2)cc1C (stereo not shown) [Example 18, N-[2-(4-methoxy-3-methylphenyl)-1-methylethyl]-2-hydroxy-2-(3-chlorophenyl)ethanamine]
Blood glucose; po, 2 h
  inhibition in vivo at 2.5 µmol/kg: 58%
